How the values were obtained:
[1] = Hepatic events in combined dataset of type 2 diabetes mellitus patients using the risk identification tool (exclusion by ApoA1 > ULN or ALT > 2X ULN); type: in vivo, human; settings: for Percent of Hepatic Events: of 14 events
Excerpt: As noted in Example 2, hepatic events in the sample populations were distributed 71% (17/24) for AGI-1067 treated patients and 29% (7/24) for patients receiving placebo resulting in an AGI-1067 to placebo ratio of 2.4.
There were 14 patients in the combined dataset who had hepatic events using the ALT >5× ULN plus TBL <2× ULN or ALT >3× ULN plus TBL >2× ULN criteria. As noted in Example 2, at randomization the ratio of AGI-1067 to placebo patients was 1.3, the same value as the randomization ratio for AGI-1067 compared to placebo.
When patients with elevated ApoA1 levels or ALT levels of greater than 2.0 times ULN were excluded, 10 hepatic events were eliminated. Of these, 90% were in the AGI-1067 treatment arm. Of the remaining 14 hepatic events, 8 were in AGI-1067 treated patients while 6 were in placebo treated patients. These hepatic events were distributed 57% (8/14) for AGI-1067 patients and 43% (6/14) for patients receiving placebo.
Table 4 summarizes the impact of the exclusionary criteria (primarily ApoA1 elevation) on the number, frequency distribution and ratio of hepatic events for the AGI-1067 and placebo groups in the 3270 type 2 diabetes mellitus patients contained in the datasets.
ALT >2× ULN could also be used as a secondary indicator for exclusion of patients.

[2] = Hepatic events / ALT elevations in combined dataset of diabetes mellitus patients, before use of the risk identification tool; type: in vivo, human; settings: for Number of Patients ALT 3X to ≦ 5X ULN With TBL ≦ 2X ULN: diabetes patients; for Percent of Hepatic Events: of 24 events
Experimental: Analyses were conducted to identify potential risk factors for drug-induced liver toxicity in clinical studies of the monosuccinic acid ester of probucol (AGI-1067). AGI-1067 represents a new class of therapies targeting certain chronic diseases such as type II diabetes mellitus and atherosclerosis. AGI-1067 functions both as a direct antioxidant and an inducer of endogenous, antioxidant processes such as hemeoxygenase-1 and thioredoxin.
There were 36 patients who had peak elevations of ATL between 3× and ≦5× ULN in the combined dataset of diabetes mellitus patients. […] ALT levels therefore appear to have limited value in assessing potential for hepatotoxicity.
There were 24 diabetes patients in the combined dataset who had hepatic events as using a criteria of either ALT >5× ULN plus TBL <2× ULN or ALT >3× ULN plus TBL >2× ULN criteria. At randomization, 57% of the patients were in the AGI-1067 arm and 43% were in the placebo arm resulting in an AGI-1067 to placebo ratio of 1.3. Of the 24 hepatic events, 17 occurred in AGI-1067 treated patients and 7 occurred in placebo treated patients. […]

[3] = Large clinical study (more than 6000 pts, 2 year average exposure) in patients with pre-existing coronary artery disease; type: in vivo
[4] = in vivo; cited from earlier work
[5] = using the risk identification tool, 75 mg
[6] = using the risk identification tool, 150 mg
[7] = using the risk identification tool, 300 mg
[8] = using the risk identification tool, AGI-1067 all doses
[9] = before use of the risk identification tool, 75 mg
[10] = before use of the risk identification tool, 150 mg
[11] = before use of the risk identification tool, 300 mg
[12] = before use of the risk identification tool, AGI-1067 all doses

## CC(C)(Sc1cc(C(C)(C)C)c(O)c(C(C)(C)C)c1)Sc1cc(C(C)(C)C)c(OC(=O)CCC(=O)O)c(C(C)(C)C)c1 [AGI-1067, monosuccinic acid ester of probucol]
[1]; 8/1851 patients
  Incidence of hepatic events after application of the exclusionary criteria: 0.4%
[1]; AGI-1067 all doses, versus before use of the tool
  Decrease (↓) of total number of hepatic events by using the risk identification tool: 53%
[1]; Baseline ApoA1
  Excluded hepatic events relative to placebo patients using Baseline ApoA1 as predictive biomarker: seven times more excluded hepatic events
[1]; Totals of all biomarkers
  Number of Hepatic Events Excluded: 9
[1]; biomarker Apo A1 > 165 mg/dl
  Number of Hepatic Events Excluded: 7
[1]; biomarker Baseline ALT > 2X ULN
  Number of Hepatic Events Excluded: 1
[1]; biomarker Month 1 ALT > 2X ULN
  Number of Hepatic Events Excluded: 1
[1]; exclusion of elevated ApoA1 or ALT > 2.0 times ULN
  Share of the 10 eliminated hepatic events that were in the AGI-1067 treatment arm: 90%
[1]; human, in vivo
  Number of hepatic events versus placebo arm after excluding patients with ApoA1 above ULN (165 mg/dl) before drug: achieved parity
[1]; using the risk identification tool
  Ratio 1067/Placebo Hepatic Events: 1.3
[1]; [5]
  Number of Hepatic Events ALT > 3X ULN Plus TBL > 2X ULN: 0
  Number of Hepatic Events ALT > 5X ULN With TBL ≦ 2X ULN: 2
  Number of Hepatic Events Total: 2
  Percent of Hepatic Events: 14%
[1]; [6]
  Number of Hepatic Events ALT > 3X ULN Plus TBL > 2X ULN: 0
  Number of Hepatic Events ALT > 5X ULN With TBL ≦ 2X ULN: 1
  Number of Hepatic Events Total: 1
  Percent of Hepatic Events: 7%
[1]; [7]
  Number of Hepatic Events ALT > 3X ULN Plus TBL > 2X ULN: 2
  Number of Hepatic Events ALT > 5X ULN With TBL ≦ 2X ULN: 3
  Number of Hepatic Events Total: 5
  Percent of Hepatic Events: 36%
[1]; [8]
  Number of Hepatic Events ALT > 3X ULN Plus TBL > 2X ULN: 2
  Number of Hepatic Events ALT > 5X ULN With TBL ≦ 2X ULN: 6
  Number of Hepatic Events Total: 8
  Percent of Hepatic Events: 57%
[2]; 75 mg
  Number of Patients ALT 3X to ≦ 5X ULN With TBL ≦ 2X ULN: 3
[2]; 75 mg, share of 36 patients
  Percent of ALT Elevations: 8%
[2]; 150 mg
  Number of Patients ALT 3X to ≦ 5X ULN With TBL ≦ 2X ULN: 4
[2]; 150 mg, share of 36 patients
  Percent of ALT Elevations: 11%
[2]; 300 mg
  Number of Patients ALT 3X to ≦ 5X ULN With TBL ≦ 2X ULN: 10
[2]; 300 mg, share of 36 patients
  Percent of ALT Elevations: 28%
[2]; AGI-1067 all doses
  Number of Patients ALT 3X to ≦ 5X ULN With TBL ≦ 2X ULN: 17
[2]; AGI-1067 all doses, share of 36 patients with ALT 3X to ≦5X ULN
  Percent of ALT Elevations: 47%
[2]; before use of the risk identification tool
  Ratio 1067/Placebo Hepatic Events: 2.4
[2]; [9]
  Number of Hepatic Events ALT > 3X ULN Plus TBL > 2X ULN: 0
  Number of Hepatic Events ALT > 5X ULN With TBL ≦ 2X ULN: 4
  Number of Hepatic Events Total: 4
  Percent of Hepatic Events: 17%
[2]; [10]
  Number of Hepatic Events ALT > 3X ULN Plus TBL > 2X ULN: 0
  Number of Hepatic Events ALT > 5X ULN With TBL ≦ 2X ULN: 2
  Number of Hepatic Events Total: 2
  Percent of Hepatic Events: 8%
[2]; [11]
  Number of Hepatic Events ALT > 3X ULN Plus TBL > 2X ULN: 4
  Number of Hepatic Events ALT > 5X ULN With TBL ≦ 2X ULN: 7
  Number of Hepatic Events Total: 11
  Percent of Hepatic Events: 46%
[2]; [12]
  Number of Hepatic Events ALT > 3X ULN Plus TBL > 2X ULN: 4
  Number of Hepatic Events ALT > 5X ULN With TBL ≦ 2X ULN: 13
  Number of Hepatic Events Total: 17
  Percent of Hepatic Events: 71%
[2]; diabetes mellitus patients
  Incidence of ALT elevations 3X to ≦5X ULN versus placebo: comparable
[3]; of 3078 patients randomized to AGI-1067, four in the placebo arm
  Number of patients demonstrating elevated ALT and bilirubin: eight
[3]; subset of patients with type 2 diabetes mellitus
  HbA1c levels: lower HbA1c levels
[3]; well-treated patients with pre-existing coronary artery disease
  Hard cardiovascular endpoints (composite of cardiovascular death, non-fatal MI and non-fatal stroke): reduce hard cardiovascular endpoints

## NNC(=O)c1ccncc1 [isoniazid]
[4]
  Serious hepatotoxicity, share of recipients: about 0.1%
